Assay results from patent US5885993A, “Remedy for pancreatitis” (Nippon Shinyaku Company, Limited, priority 1995, dated 1999).

Columns and labels:
Cn+St pancreatitis = experiment: Antipancreatitis activity: severity of pancreatitis and wet weight of pancreas in Cn+St pancreatitis (cerulein plus water immersion stress); assay type: in vivo, SD rats (female, 12-week-old); details: for Wet weight of pancreas / Severity of pancreatitis: oral gavage 18 and 2 hours before first Cn dosing, mean ± S.E.; for Severity of pancreatitis: score
Description: The antipancreatitis action of the compound of the invention was confirmed in a test using rats as described hereinafter. The test protocol used is the most popular of all of the test protocols available for the evaluation of therapeutic drugs for pancreatitis in animals. A high correlation has been reported to hold between the antipancreatitis effect found by this test and the clinical effect in man [Yamaguchi et al.: Association of stresses in the onset of pancreatitis, Shoukakika, 18(2), 186-196, 1994). Female 12-week-old SD rats were used in groups of 10 individuals. After 40 μg/kg of cerulein (Cn) was administered intraperitoneally, the animals were placed in stress cages and immersed down to the xiphoid in a constant-temperature bath at 23° C. One hour later, 40 μg/kg of Cn was administered i.p. again and the stress loading was continued. After 5 hours of stress loading, the animals were sacrificed and laparotomized and the severity of pancreatitis was scored in accordance with the evaluation criteria proposed by Yamaguchi et al. (Gastroenterology 98: 1682-1688, 1990). In addition, the pancreas was excised and its wet weight was determined. As the test compounds, compounds 1, 2, 3, and 4 were administered by oral gavage 18 and 2 hours before the first Cn dosing. As a control compound, irsogladine maleate was used. Statistical significance was tested by Wilcoxon rank sum test for the severity and by Dunnett test for the wet weight.

[1] = test system: cerulein-induced acute pancreatitis; details: Proceedings of the 36th Congress of The Japanese Society of Gastroenterology, p.266; cited from earlier work
male mice (BALB/c) = experiment: Acute toxicity; assay type: in vivo; details: monitored for 1 week
Method: Six-week-old male mice (BALB/c) fasted in advance was orally dosed with 1 g/kg or 500 mg/kg of the test compound and the time course of mortality was monitored for 1 week. The test compound was suspended in 0.5% aqueous methylcellulose solution and administered in the dose of 500 or 1,000 mg/20 ml/kg. […] The toxicity of the compound of the invention is, thus, extremely low.

[2] = Effect on body weight gain; assay type: in vivo, SD rats (male, 6-week-old); details: 1000 mg/kg orally daily for 2 consecutive weeks
Method: Compound 1 was administered orally to 6-week-old male SD rats (in groups of 5) daily to investigate its effect on body weight gain.

Row | SMILES | Wet weight of pancreas (Cn+St pancreatitis; 10 mg/kg) [g/kg] | Severity of pancreatitis (Cn+St pancreatitis; 10 mg/kg) | Wet weight of pancreas (Cn+St pancreatitis; 30 mg/kg) [g/kg] | Severity of pancreatitis (Cn+St pancreatitis; 30 mg/kg) | Wet weight of pancreas (Cn+St pancreatitis; 100 mg/kg) [g/kg] | Severity of pancreatitis (Cn+St pancreatitis; 100 mg/kg) | minimal effective dose (Cn+St pancreatitis; Rattus norvegicus, only at this dose (10, 30, 100 mg/kg tested), oral, read-out: dose showing a significant reducing effect on the severity of pancreatitis) [mg/kg] | effect on wet weight (swelling) of pancreas relative to comparator, in words (Cn+St pancreatitis; compound of the invention versus control compound irsogladine maleate) | inhibitory activity in Cn+St pancreatitis (in words) (Cn+St pancreatitis; rat model, cerulein plus water immersion stress loading) | efficacy in Cn-induced acute pancreatitis (in words) [1] | Wet weight of pancreas (Cn+St pancreatitis; 3 mg/kg) [g/kg] | Severity of pancreatitis (Cn+St pancreatitis; 3 mg/kg) | mortality (male mice (BALB/c); 1 g/kg oral) | Wet weight of pancreas (Cn+St pancreatitis; 1 mg/kg) [g/kg] | Severity of pancreatitis (Cn+St pancreatitis; 1 mg/kg) | mortality (male mice (BALB/c); 500 mg/kg oral) | effect on body weight gain [2]
1 | Nc1nc(N)nc(-c2cc(Cl)ccc2Cl)n1.O=C(O)/C=C\C(=O)O [irsogladine maleate, 2,4-diamino-6-(2,5-dichlorophenyl)-1,3,5-triazine maleate, reference compound] | 10.09 ± 0.51 | 2.2 ± 0.33 | 8.52 ± 0.60 | 1.5 ± 0.27 | 7.14 ± 0.58 | 0.4 ± 0.22 | 100 | almost equivalent to the compound of the invention in the effect on wet weight of pancreas | only moderate activity | proved efficacious | – | – | – | – | – | – | –
2 | Nc1nc(-c2cc(Cl)ccc2Cl)nc(N2C[C@H](O)C[C@H]2CO)n1 [Compound 3, 2-Amino-4-(2,5-dichlorophenyl)-6-[(2S,4R)-2-hydroxymethyl-4-hydroxy-1-pyrrolidinyl]-1,3,5-triazine] | 6.67 ± 0.37 | 0.7 ± 0.08 | 5.96 ± 0.70 | 0.6 ± 0.08 | – | – | – | – | – | – | 7.58 ± 0.36 | 1.4 ± 0.10 | no death was encountered | – | – | – | –
3 | Cl.Nc1nc(-c2cc(Cl)ccc2Cl)nc(N2CCC[C@H]2CO)n1 [Compound 2, (S)-2-amino-4-(2,5-dichlorophenyl)-6-(2-hydroxymethyl-1-pyrrolidinyl)-1,3,5-triazine hydrochloride] | 7.31 ± 0.64 | 0.4 ± 0.16 | 4.35 ± 0.32 | 0.1 ± 0.03 | – | – | – | – | – | – | 6.83 ± 0.48 | 0.8 ± 0.29 | – | 6.86 ± 0.41 | 1.3 ± 0.30 | no death was encountered | –
4 | Nc1nc(-c2cc(Cl)ccc2Cl)nc(N(CCO)CCO)n1 [Compound 1, 2-Amino-4-[N,N-bis(2-hydroxyethyl)amino]-6-(2,5-dichlorophenyl)-1,3,5-triazine] | 9.33 ± 0.66 | 1.4 ± 0.22 | 7.13 ± 0.57 | 0.6 ± 0.22 | 5.65 ± 0.40 | 0.3 ± 0.21 | – | – | – | – | – | – | no death was encountered | – | – | – | did not affect the body weight gain of rats
5 | Nc1nc(-c2cc(Cl)ccc2Cl)nc(N2CCOCC2)n1 [Compound 4, 2-Amino-4-(2,5-dichlorophenyl)-6-morpholino-1,3,5-triazine] | 7.33 ± 0.23 | 0.9 ± 0.28 | 6.18 ± 0.53 | 0.5 ± 0.22 | 7.49 ± 0.47 | 0.5 ± 0.17 | – | – | – | – | – | – | no death was encountered | – | – | – | –
